Measured values from US20220017971A1, “COMPOSITION FOR PREDICTING CHEMOTHERAPY RESISTANCE OF OVARIAN CANCER AND USE THEREOF” (KOOKMIN UNIVERSITY INDUSTRY ACADEMY COOPERATION FOUNDATION, priority 2020, published 2022).

Tests used:
Type in all cases: cell-based
[1] = system: OV90 cells; assay: Cell proliferation capacity using BrdU, OV90; details: for proliferative capability (BrdU incorporation): agent alone; for proliferative capability reduced by cisplatin (BrdU): combined treatment with cisplatin; for proliferative capability reduced by paclitaxel (BrdU): combined treatment with paclitaxel
Procedure: (§1) Epithelial ovarian cancer OV90 and ES2 cells were cultured in 6 wells, and a non-specific control and target oligonucleotide were transfected using Lipofectamine 2000 (Invitrogen). All oligonucelotides were synthesized by to Bioneer. Oligonucleotide and Lipofectamine 2000 were diluted in Opti-MEM reduced serum medium (Gibco, Cat No: 32985070) and then treated with cells. After 6 h of incubation at 37° C. in a 5% CO2 incubator, the medium was replaced with a medium containing FBS.
(§2) An experiment was performed according to the manufacturer's manual using the BrdU kit (Cat No: 1167229001, Roche) to confirm the change in the proliferation ability of epithelial ovarian cancer cells. After 48 hours of incubation, 10 μM BrdU was additionally added to each well and incubated for 2 hours at 37° C./5% CO2 in an incubator. After labeling the epithelial ovarian cancer cells with BrdU and fixing the cells, they were incubated with anti-BrdU-POD solution at room temperature for 90 minutes, and then washed three times. Finally, the cells were reacted with 100 μl of 3,3′, 5,5′-tetramethylbenzidine substrate, and the cell proliferation ability was analyzed by measuring the absorbance at 370 nm and 492 nm using an ELISA reader.

[2] = system: ES2 cells; assay: Cell proliferation capacity using BrdU, ES2; details: for proliferative capability (BrdU incorporation): agent alone; for proliferative capability reduced by cisplatin (BrdU): combined treatment with cisplatin; for proliferative capability reduced by paclitaxel (BrdU): combined treatment with paclitaxel
Procedure: as §1, §2

[3] = system: PCNA; assay: PCNA expression (qPCR, immunofluorescence), OV90; details: OV90 cells; for PCNA expression reduced by cisplatin: combined treatment with cisplatin; for PCNA expression: anticancer drug alone
Procedure: (§3) cDNA was synthesized from 1 μg of RNA using AccuPower RT PreMix (Bioneer, Daejeon, Korea). Gene expression was measured using SYBR Green (Sigma) and the StepOnePlus Real-Time PCR system (Applied Biosystems, Foster City, Calif.). PCR conditions were incubated at 95° C. for 3 minutes, then 95° C. 30 seconds, 60° C. 30 seconds, and 72° C. 3 minutes conditions were amplified 40 times, and normalized based on the GAPDH expression level.
(§4) Transfected epithelial ovarian cancer cells were fixed with methanol for 10 minutes and treated with PCNA antibody diluted in 1:100. After that, after washing twice with PBS containing 0.1% bovine serum albumin (BSA), the secondary antibody goat anti-mouse IgG Alexa 488 (catalog number: A11017, Invitrogen, Carlsbad, Calif.) was added to antibody dilution buffer so as to be diluted in 1:200 and incubated for 1 hour at room temperature.
(§5) After washing the cells with 0.1% BSA-PBS, DAPI staining was additionally performed to allow simultaneous observation of the target protein as well as the nucleus. After finishing the experiment, cells were observed and photographed using an LSM710 (Carl Zeiss, Thornwood, N.Y., USA) confocal microscope.

[4] = system: PCNA; assay: PCNA expression (qPCR, immunofluorescence), ES2; details: ES2 cells; for PCNA expression reduced by cisplatin: combined treatment with cisplatin; for PCNA expression: anticancer drug alone
Procedure: as §3, §4, §5

[5] = system: LHX6; assay: LHX6 gene expression after oligonucleotide transfection (qPCR), OV90; details: OV90 cells
Procedure: as §3, §1
(§6) Next, to analyze whether miR-214-3p can alter the characteristics of epithelial ovarian cancer cells, OV90 and ES2 cells, epithelial ovarian cancer cell lines, were transfected with a mimic for miR-214 and an inhibitor for miR-214-3p (SEQ ID NO: 2: 5′-ACUGCCUGUCUGUGCCUGCUGU-3′).

[6] = system: LHX6; assay: LHX6 gene expression after oligonucleotide transfection (qPCR), ES2; details: ES2 cells
Procedure: as §3, §1, §6

[7] = system: OV90 cells; assay: Apoptosis by annexin V and propidium iodide staining, OV90
Procedure: (§7) In order to confirm the change in the apoptosis effect of epithelial ovarian cancer cells, an experiment was performed using the FITC Annexin V cell death diagnostic kit I (BD Biosciences). Using trypsin, the cells were removed from the culture dish, washed with PBS, and the cells were slowly mixed using 1 mL of 1× binding buffer and then centrifuged to obtain a cell pellet.
(§8) Next, the cells were suspended and cultured with 200 μL of 1× binding buffer, put into 100 μL of a brown 1.5 mL tube, and cells were mixed with 5 μL of Annexin V and 5 μL of PI, and then stained at room temperature for 15 minutes. After that, 400 μL of 1×binding buffer was added and the stained solution was transferred to a 5 mL FACS tube, and then the fluorescence intensity was analyzed using a flow cytometer to measure the number of apoptotic cells.

[8] = system: ES2 cells; assay: Apoptosis by annexin V and propidium iodide staining, ES2
Procedure: as §7, §8

[9] = system: OV90 cells; assay: Cell cycle analysis using propidium iodide staining, OV90; details: 48 hours
Procedure: (§9) In order to confirm the cell cycle change of ovarian cancer cells by the miR-214-3p inhibitor, 5×10^5 cells were cultured in 6 wells until 70 to 80% abundance appeared. Thereafter, miR-214-3p inhibitors were treated in a dose-dependent manner (10, 20, 40 nM) and cultured in a 37° C./5% CO2 incubator for 48 hours. Then, using trypsin, the cells were removed from the culture dish, washed with PBS, and the cells were slowly mixed using 1 mL of 1× binding buffer, and then centrifuged to obtain a cell pellet.
(§10) Next, the cells were suspended and cultured with 200 μL of 1× binding buffer, put in 100 μL in a brown 1.5 mL tube, and 5 μL of RNase and 5 μL of PI were mixed together to stain the cells for 1 hour at room temperature. After that, 400 μL of 1× binding buffer was added, the stained solution was transferred to a 5 mL FACS tube, and the fluorescence intensity was analyzed using a flow cytometer to measure the number of cells corresponding to each cell cycle.

[10] = system: ES2 cells; assay: Cell cycle analysis using propidium iodide staining, ES2; details: 48 hours
Procedure: as §9, §10

[11] = system: OV90 cells; assay: Cell migration, OV90
[12] = system: ES2 cells; assay: Cell migration, ES2
[13] = system: OV90 cells; assay: Intracellular ROS measurement using DCFH-DA, OV90
Procedure: (§11) ES2 and OV90 cells were collected through trypsin and centrifuged to obtain a cell pellet. After washing once with PBS, 10 μM of DCFH-DA was incubated in an incubator at 37° C. for 30 minutes. Thereafter, the cells were washed twice with PBS, and a miR-214-3p inhibitor was added thereto and incubated in an incubator at 37° C. for 1 hour. Treated cells were washed again with PBS and analyzed for DCF fluorescence intensity using flow cytometry.

[14] = system: ES2 cells; assay: Intracellular ROS measurement using DCFH-DA, ES2
Procedure: as §11

[15] = system: OV90 cells; assay: Mitochondrial membrane potential by JC-1 staining, OV90
Procedure: (§12) JC-1 mitochondrial membrane potential (MMP) changes were measured using a mitochondria staining kit (Cat No: CS0390, Sigma-Aldrich). 5×10^5 ES2 and OV90 cells were each aliquoted into 6 wells, and the cells were cultured until 70 to 80% abundance of the culture dish appeared. Thereafter, the miR-214-3p inhibitor was dose-dependently treated and cultured in a 37° C./5% CO2 incubator for 48 hours. Thereafter, cells were collected from the culture dish using trypsin and centrifuged to obtain a cell pellet. Cells were dissolved in JC-1 staining solution and incubated for 20 minutes at 37° C./5% CO2 incubator. The stained cells were centrifuged again, washed with 1×JC-1 staining buffer, and then fluorescence intensity was analyzed using a flow cytometer.

[16] = system: ES2 cells; assay: Mitochondrial membrane potential by JC-1 staining, ES2
Procedure: as §12

[17] = system: OV90 cells; assay: Intracellular calcium concentration by fluo-4 staining, OV90
Procedure: (§13) To check the intracellular calcium concentration of ovarian cancer cells, 3 μM of fluo-4 acetoxymethyl ester (AM) (Invitrogen) was used. First, 5×10^5 cells were cultured in 6 wells. Thereafter, the miR-214-3p inhibitor was dose-dependently treated and cultured in a 37° C./5% CO2 incubator for 48 hours. After that, cells were removed from the culture dish using trypsin, washed with PBS, and stained with 3 μM fluo-4 in an incubator at 37° C./5% CO2 for 20 minutes, washed with PBS, and then the stained solution was transferred into a FACS tube and the fluorescence intensity was analyzed using a flow cytometer to […].

[18] = system: ES2 cells; assay: Intracellular calcium concentration by fluo-4 staining, ES2
Procedure: as §13

[19] = combined treatment with paclitaxel

Compound | proliferative capability (BrdU incorporation) [1] | proliferative capability reduced by cisplatin (BrdU) [1] | proliferative capability reduced by paclitaxel (BrdU) [1] | proliferative capability (BrdU incorporation) [2] | proliferative capability reduced by cisplatin (BrdU) [2] | proliferative capability reduced by paclitaxel (BrdU) [2] | PCNA expression reduced by cisplatin [3] | PCNA expression reduced by cisplatin [4] | PCNA expression [3] | PCNA expression [4] | further results
siLHX6: siRNA that inhibits the expression of LHX6 (SEQ ID NO: 3 sense 5′-GAG UCA UCC UUU UUC AGU A-3′, SEQ ID NO: 4 antisense) (sense GAGUCAUCCUUUUUCAGUA; antisense UACUGAAAAAGGAUGACUC; listed as RNA, chemistry not given here) | significantly increased | restored | restored | significantly increased | restored | restored | restored | restored | – | – | increase of proliferative levels ([1]; 40 nM): 1.4 fold; increase of proliferative levels ([2]; 40 nM): 1.4 fold; mRNA and protein level expression of PCNA ([3]; qPCR and immunofluorescence): significantly increased; mRNA and protein level expression of PCNA ([4]; qPCR and immunofluorescence): significantly increased
N.N.[Cl][Pt][Cl] [cisplatin] | reduced | – | – | reduced | – | – | – | – | significantly reduced | significantly reduced | –
miR-214-3p inhibitor: inhibitor for miR-214-3p (SEQ ID NO: 2: 5′-ACUGCCUGUCUGUGCCUGCUGU-3′) (ACUGCCUGUCUGUGCCUGCUGU; listed as RNA, chemistry not given here) | inhibit the proliferative capability | further reduced | further reduced | inhibit the proliferative capability | further reduced | further reduced | further decreased | further decreased | – | – | expression of the target gene LHX6 [5]: increased; expression of the target gene LHX6 [6]: increased; PCNA expression reduced by paclitaxel [3, 19]: further decreased; PCNA expression reduced by paclitaxel [4, 19]: further decreased; increase of apoptotic cells ([7]; 40 nM, p<0.001): 2.6 fold; apoptotic cell death compared to the control group ([7]; transfection): significantly increased; increase of apoptotic cells ([8]; 40 nM, p<0.001): 1.7 fold; apoptotic cell death compared to the control group ([8]; transfection): significantly increased; sub-G1 of the cell cycle [9]: increasing; sub-G1 of the cell cycle [10]: increasing; cell migration [11]: reduced; cell migration [12]: reduced; reactive oxygen species [13]: increased; reactive oxygen species [14]: increased; mitochondrial membrane potential [15]: induced a change; mitochondrial membrane potential [16]: induced a change; intracellular calcium ions [17]: increased; intracellular calcium ions [18]: increased
CC(=O)O[C@H]1C(=O)[C@@]2(C)[C@H]([C@H](OC(=O)c3ccccc3)[C@]3(O)C[C@H](OC(=O)[C@H](O)[C@@H](NC(=O)c4ccccc4)c4ccccc4)C(C)=C1C3(C)C)[C@]1(OC(C)=O)CO[C@@H]1C[C@@H]2O [paclitaxel] | reduced | – | – | reduced | – | – | – | – | reduced | reduced | –
